Values after ≈ are worked out from the molar mass of the structure shown.
Assays:
Assay in all cases: In vitro antibacterial activity, microbroth dilution method (NCCLS method)
Format in all cases: cell-based
H. influenzae ATCC 43095 = details: Haemophilus influenzae, ATCC43095; bacteria symbol A = H. influenzae ATCC 43095; read-out: MIC values (minimum inhibitory concentration)
Protocol: (§1) In vitro antibacterial activities of the compounds of the present invention against various test bacteria were measured according to the microbroth dilution method (NCCLS method). As test compounds, the compounds of Examples 7, 23, 114, 126, 131, 210, 214, 231, 257, 261, 287, 363, 366, 563 and Comparative agent 1: clarithromycin were used. The results are shown as MIC values (minimum inhibitory concentration, μg/ml) in Table 21.

S. pneumoniae 205 = details: Streptococcus pneumoniae; bacteria symbol C = S. pneumoniae 205; read-out: MIC values (minimum inhibitory concentration)
Protocol: as §1

S. pneumoniae ATCC 49619 = details: Streptococcus pneumoniae, ATCC49619; bacteria symbol B = S. pneumoniae ATCC 49619; read-out: MIC values (minimum inhibitory concentration)
Protocol: as §1

MIC (H. influenzae ATCC 43095) [µg/mL] | MIC (S. pneumoniae 205) [µg/mL] | MIC (S. pneumoniae ATCC 49619) [µg/mL] | SMILES
4 (≈ 5.56 µM) | 64 (≈ 89 µM) | 0.12 (≈ 0.167 µM) | CO[C@]1(C)C[C@H](O[C@H]2[C@H](C)[C@@H](O[C@@H]3O[C@H](C)C[C@H](N(C)C)[C@H]3O)[C@@](C)(OC)C[C@@H](C)[C@H](O)[C@H](C)N(C)C(C)C(C)OC(=O)[C@@H]2C)O[C@@H](C)[C@@H]1O (stereo partly drawn) [Example 261]
4 (≈ 5.35 µM) | > 128 | 0.03 (≈ 0.0401 µM) | CC[C@H]1OC(=O)[C@H](C)[C@@H](O[C@H]2C[C@@](C)(OC)[C@@H](O)[C@H](C)O2)[C@H](C)[C@@H](O[C@@H]2O[C@H](C)C[C@H](N(C)C)[C@H]2O)[C@](C)(OC)C[C@@H](C)C(=O)[C@H](C)[C@@H](O)[C@]1(C)O [Comparative agent 1, clarithromycin]

Source: patent US8097708B2, “10a-Azalide compound” (Taisho Pharmaceutical Co., Ltd., priority 2006, dated 2012)
